From EP4631938A1, “NITROGEN-CONTAINING HETEROCYCLE WITH SEROTONIN RECEPTOR-BINDING ACTIVITY AND CARBOCYCLIC DERIVATIVE” (Shionogi & Co., Ltd, priority 2022, dated 2024)

Experiments:
[1] = molecular target: T1, human recombinant 5-HT2A receptor (Homo sapiens, UniProt P28223); experiment: Test Example 1-2: 5-HT2A receptor binding inhibition test ([3H]-Ketanserin; non-specific ligand Ketanserin); conditions: [3H]-Ketanserin; non-specific binding with 500 µmol/L Ketanserin; room temperature (25°C), 1.5 hours; read-out: h 5-HT2A Ki
T1 construct: expressed in transfected cells; host or cells: Jump-In HEK cells (membrane preparation)
Procedure: The Kd value is calculated when the lot of the cell membrane is changed. 1 mmol/L non-specific binding calculating compound dissolved in DMSO or DMSO is previously dispensed to the microplate by 0.5 µL, and the cell membrane is diluted with an Assay buffer. The radioactive ligand solution is diluted step by step, and counts are checked with a liquid scintillator. The Assay buffer containing diluted cell membranes is dispensed by 50 µL/well into the microplate. The radioactive ligand solution is then dispensed by 50 µL/well into the microplate and the plate is sealed. The microplate is allowed to stand for 1.5 hours at room temperature (25°C). During this time, 50 mmol/L Tris-HCl (pH 7.4) is dispensed by 50 µL/well into the UniFilter plate and allowed to stand at 4°C for 1 hour or longer. Thereafter, filtration is performed with a Cell Harvester (PerkinElmer). The radioactive ligand solution is dispensed by 10 µL/well into empty wells of the UniFilter plate. After drying the UniFilter plate at room temperature, MicroScinti20 is dispensed by 50 µL/well into the UniFilter plate, and the plate is sealed. UniFilter plate is allowed to stand at room temperature overnight. The radioactivity of [^3H]-Ketanserin bound to the 5-HT2A receptor is measured using Microbeta2 (PerkinElmer) at a measurement time of 1 min/well. The Saturation curve is drawn from the measured value, and the Kd value is calculated from the slope of the Scatchard Plot.
A compound solution dissolved in DMSO is dispensed to a microplate by 0.5 µL, and a cell membrane and a hot ligand are each diluted with an Assay buffer. The Assay buffer containing diluted cell membrane is then dispensed by 50 µL/well into the microplate. The radioactive ligand solution is then dispensed by 50 µL/well into the microplate and the plate is sealed. Thereafter, the microplate is allowed to stand at room temperature (25°C) for 1.5 hours. During this time, 50 mmol/L Tris-HCl (pH 7.4) is dispensed by 50 µL/well into the UniFilter plate and allowed to stand at 4°C for 1 hour or longer. Thereafter, filtration is performed with a Cell Harvester (PerkinElmer). After drying the UniFilter plate at room temperature, MicroScinti20 is dispensed by 50 µL/well into the UniFilter plate, and the plate is sealed. UniFilter plate is allowed to stand at room temperature overnight. The radioactivity of [^3H]-Ketanserin bound to the 5-HT2A receptor is measured using Microbeta2 (PerkinElmer) at a measurement time of 1 min/well. Non-specific binding is calculated from the radioactivity of [^3H]-Ketanserin in the presence of 500 µmol/L Ketanserin of unlabeled ligand, and total binding is calculated from the radioactivity of [^3H]-Ketanserin in the absence of the compound of the present invention (Vehicle). Finally, the Ki value is calculated from the dose-response curve.
(§1) (The binding activity of the compound according to the present invention is calculated from the following binding inhibition rate (%).) Inhibition rate (%) = [1−(c−a)/(b−a)] × 100 [formula] • a; average cpm of non-specific binding • b; average cpm of total binding • c; cpm in the presence of the test compound
(§2) The compounds of the present invention were tested essentially as described above.

[2] = molecular target: T2, human recombinant 5-HT2C receptor (Homo sapiens, UniProt P28335); experiment: Test Example 2: 5-HT2C receptor binding inhibition test ([3H]-Mesulergine; non-specific ligand Serotonin HCl); conditions: human serotonin 5-HT2C receptor binding activity
T2 construct: expressed in transfected cells; host or cells: Jump-In HEK cells (membrane preparation)
T2 sequence (P28335 33-458): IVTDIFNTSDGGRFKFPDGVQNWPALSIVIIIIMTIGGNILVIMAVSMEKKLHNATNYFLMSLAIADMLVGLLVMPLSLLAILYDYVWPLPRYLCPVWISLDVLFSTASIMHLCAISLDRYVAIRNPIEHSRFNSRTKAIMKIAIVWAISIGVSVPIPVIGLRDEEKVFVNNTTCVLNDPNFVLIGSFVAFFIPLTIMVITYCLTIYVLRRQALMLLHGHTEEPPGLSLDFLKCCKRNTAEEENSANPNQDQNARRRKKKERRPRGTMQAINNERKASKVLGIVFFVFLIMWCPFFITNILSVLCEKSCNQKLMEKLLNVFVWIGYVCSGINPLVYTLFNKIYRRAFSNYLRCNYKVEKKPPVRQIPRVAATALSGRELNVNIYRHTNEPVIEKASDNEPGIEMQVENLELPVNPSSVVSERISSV
Procedure: The Kd value is calculated when the lot of the cell membrane is changed. 1 mmol/L non-specific binding calculating compound dissolved in DMSO or DMSO is previously dispensed to the microplate by 0.5 µL, and the cell membrane is diluted with an Assay buffer. The radioactive ligand solution is diluted step by step, and counts are checked with a liquid scintillator. The Assay buffer containing diluted cell membranes is dispensed by 50 µL/well into the microplate. The radioactive ligand solution is then dispensed by 50 µL/well into the microplate and the plate is sealed. The microplate is allowed to stand at 37°C for 2 hours. During this time, 50 mmol/L Tris-HCl (pH 7.4) is dispensed by 50 µL/well into the GF/B UniFilter plate and allowed to stand at 4°C for 1 hour or longer. Thereafter, filtration is performed with a Cell Harvester (PerkinElmer). The radioactive ligand solution is dispensed by 10 µL/well into empty wells of the GF/B UniFilter plate. After drying the GF/B UniFilter plate at room temperature, MicroScinti20 is dispensed by 50 µL/well into the GF/B UniFilter plate, and the plate is sealed. GF/B UniFilter plate is allowed to stand at room temperature overnight. The radioactivity of [^3H]-Mesulergine bound to the 5-HT2C receptor is measured using Microbeta2 (PerkinElmer) at a measurement time of 1 min/well. The Saturation curve is drawn from the measured value, and the Kd value is calculated from the slope of the Scatchard Plot.
A compound solution dissolved in DMSO is dispensed to a microplate by 0.5 µL, and a cell membrane and a hot ligand are each diluted with an Assay buffer. The Assay buffer containing diluted cell membrane is then dispensed by 50 µL/well into the microplate. The radioactive ligand solution is then dispensed by 50 µL/well into the microplate and the plate is sealed. The microplate is then allowed to stand at 37°C for 2 hours. During this time, 50 mmol/L Tris-HCl (pH 7.4) is dispensed by 50 µL/well into the GF/B UniFilter plate and allowed to stand at 4°C for 1 hour or longer. Thereafter, filtration is performed with a Cell Harvester (PerkinElmer). After drying the GF/B UniFilter plate at room temperature, MicroScinti20 is dispensed by 50 µL/well into the GF/B UniFilter plate, and the plate is sealed. GF/B UniFilter plate is allowed to stand at room temperature overnight. The radioactivity of [^3H]-Mesulergine bound to the 5-HT2C receptor is measured using Microbeta2 (PerkinElmer) at a measurement time of 1 min/well. Non-specific binding is calculated from the radioactivity of [^3H]-Mesulergine in the presence of 500 µmol/L Serotonin HCl of unlabeled ligand, and total binding is calculated from the radioactivity of [^3H]-Mesulergine in the absence of the compound of the present invention (Vehicle). Finally, the Ki value is calculated from the dose-response curve.
as §1, §2

T1 sequence (P28223 whole entry): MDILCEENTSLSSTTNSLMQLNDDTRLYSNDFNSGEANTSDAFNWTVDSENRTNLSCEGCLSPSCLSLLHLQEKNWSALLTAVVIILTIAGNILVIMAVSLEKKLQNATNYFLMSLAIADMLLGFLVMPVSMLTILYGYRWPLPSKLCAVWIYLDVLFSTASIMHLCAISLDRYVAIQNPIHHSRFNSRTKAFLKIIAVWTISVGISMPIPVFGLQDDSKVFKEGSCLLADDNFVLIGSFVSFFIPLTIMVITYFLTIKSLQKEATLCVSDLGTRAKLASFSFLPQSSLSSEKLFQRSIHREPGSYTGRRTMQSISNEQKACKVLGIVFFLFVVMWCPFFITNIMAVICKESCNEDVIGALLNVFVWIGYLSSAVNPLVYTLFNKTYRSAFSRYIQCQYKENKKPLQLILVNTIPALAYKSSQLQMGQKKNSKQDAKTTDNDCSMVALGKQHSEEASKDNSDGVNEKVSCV

| SMILES | Ki [1] | Ki [2] |
| --- | --- | --- |
| Cn1ncc(Br)c1-c1nc(Nc2ccc(Cl)cc2Cl)ncc1OCCO [Compound I-342] | 0.256 nM | 1.88 nM |
| COCc1nc(C)c(-c2cc(Nc3ccc(C4CC(F)(F)C4)cn3)ncc2OCCO)c(C)n1 [Compound I-192] | 2.31 nM | 9.15 nM |
| COCc1nc(C)c(-c2nc(Nc3ccc(C(F)(F)F)c(OC)n3)c(F)cc2OCCO)c(C)n1 [Compound I-394] | 1.34 nM | 2.16 nM |
| COCCOCc1nc(C)c(-c2cc(Nc3ncc(C(F)(F)F)cc3Cl)ncc2OCCO)c(C)n1 [Compound I-205] | 2.94 nM | 0.752 nM |
| CCCc1nc(C)c(-c2cc(Nc3ncc(C(F)(F)F)cc3Cl)ncc2OCCO)c(C)n1 [Compound I-222] | 1.35 nM | 1.91 nM |
| COCc1nc(C)c(-c2cc(Nc3ncc(OC4CC(F)(F)C4)cc3Cl)ncc2OCCO)c(C)n1 [Compound I-332] | 5.58 nM | 3.12 nM |
| Cc1nc(CO[C@H]2CCOC2)nc(C)c1-c1cc(Nc2ncc(C(F)(F)F)cc2Cl)ncc1OCCO [Compound I-377] | 2.9 nM | 4.66 nM |
| Cc1nc(COC2CCCOC2)nc(C)c1-c1cc(Nc2ncc(C(F)(F)F)cc2Cl)ncc1OCCO (racemic) [Compound I-382] | 2.44 nM | 3.43 nM |
| COCc1nc(C)c(-c2nc(Nc3ccc(OC(F)(F)F)c(C)n3)c(F)cc2OCCO)c(C)n1 [Compound I-395] | 3.37 nM | 1.84 nM |
| Cn1ncc(Cl)c1-c1cc(Nc2ccc(OCC(F)F)cn2)ncc1OCCO [Compound I-320] | 0.297 nM | 7.91 nM |
| Cc1ncnc(C)c1-c1cc(Nc2ncc(C(F)(F)F)cc2Cl)ncc1OCCO [Compound I-202] | 0.828 nM | 9.12 nM |
| Cn1ncc(Cl)c1-c1nc(Nc2ccc(OC(F)(F)F)cn2)c(F)cc1OCCO [Compound I-386] | 0.244 nM | 5.22 nM |
| COCc1nc(C)c(-c2cc(Nc3ncc(-c4ncc(F)cc4F)cc3Cl)ncc2OCCO)c(C)n1 [Compound I-252] | 3.95 nM | 3.17 nM |
| Cc1nc(OCC2COC2)nc(C)c1-c1cc(Nc2ncc(C(F)(F)F)cc2Cl)ncc1OCCO [Compound I-219] | 1.25 nM | 6.28 nM |
| Cc1nc(C)c(-c2cc(Nc3ccc(-c4ccc(C(F)(F)F)cc4)cn3)ncc2OCCO)c(C)n1 [Compound I-303] | 0.379 nM | 0.278 nM |
| Cc1ccc(CO)cc1-c1cc(Nc2ncc(C(F)(F)F)cc2F)ncc1OCCO [Compound I-373] | 1.21 nM | 64.7 nM |
| Cn1ncc(Br)c1-c1nc(Nc2ccc(C(F)(F)F)cc2)c(F)cc1OCCO [Compound I-276] | 0.135 nM | 0.267 nM |
| O=C1OCc2c1cccc2-c1cc(Nc2ncc(C(F)(F)F)cc2F)ncc1OCCO [Compound I-360] | 1.22 nM | 54.8 nM |

| SMILES | Ki [1] | Ki [2] |
| --- | --- | --- |
| Cn1ncc(Br)c1-c1cc(Nc2ncc(OC(F)(F)F)cn2)cnc1OCCO [Compound I-269] | 0.295 nM | 2.85 nM |
| Cc1cc(Cl)cnc1Nc1cc(-c2c(C)cnn2C)c(OCCO)cc1F [Compound I-172] | 0.812 nM | 2.49 nM |
| Cc1cc(C#N)ccc1Nc1ncc(OCCO)c(-c2c(Br)cnn2C)n1 [Compound I-355] | 0.398 nM | 8.2 nM |
| Cn1ncc(Br)c1-c1cc(Nc2ncc(OC(F)F)cn2)ncc1OCCO [Compound I-286] | 0.6 nM | 3.22 nM |
| COCc1nc(C)c(-c2cc(Nc3ncc(-c4cccc(C#N)c4)cc3Cl)ncc2OCCO)c(C)n1 [Compound I-260] | 2.05 nM | 2.06 nM |
| Cc1nc(C)c(-c2cc(Nc3ccc(-c4ccccc4)cn3)ncc2OCCO)c(C)n1 [Compound I-298] | 0.303 nM | 3.15 nM |
| COCc1nc(C)c(-c2cc(Nc3ncc(-c4cccc(F)c4)cc3Cl)ncc2OCCO)c(C)n1 [Compound I-257] | 0.395 nM | 0.316 nM |
| Cn1ncc(Cl)c1-c1cc(Nc2ccc(OC(C)(F)F)cn2)ncc1OCCO [Compound I-229] | 0.28 nM | 2.22 nM |
| Cc1cnn(C)c1-c1cc(Nc2ncc(OC(F)(F)F)cc2F)ncc1OCCO [Compound I-292] | 0.385 nM | 2.4 nM |
| Cn1ncc(Br)c1-c1cc(Nc2nc3ccc(F)cc3s2)c(F)cc1OCCO [Compound I-405] | 0.274 nM | 0.293 nM |
| COCc1nc(C)c(-c2nc(Nc3ccc(C(F)(F)F)c(C#N)n3)c(F)cc2OCCO)c(C)n1 [Compound I-396] | 9.96 nM | 17.2 nM |
| Cc1cc(OC(F)F)cnc1Nc1cc(-c2c(Br)cnn2C)c(OCCO)cn1 [Compound I-177] | 0.331 nM | 0.63 nM |
| COCc1nc(C)c(-c2cc(Nc3ncc(-c4ccc(Cl)cc4F)cc3Cl)ncc2OCCO)c(C)n1 [Compound I-263] | 0.577 nM | 0.318 nM |
| Cc1nc(C)c(-c2cc(Nc3ncc(C(F)(F)F)cc3Cl)ncc2OCCO)c(C)n1 [Compound I-390] | 1.08 nM | 3.91 nM |
| Cn1ncc(Br)c1-c1cc(Nc2ncc(C(F)(F)F)cc2F)c(Cl)cc1OCCO [Compound I-399] | 0.347 nM | 0.86 nM |
| C[C@H](CO)Oc1cnc(Nc2ncc(C(F)(F)F)cc2F)cc1-c1cccc2c1CNC2=O [Compound I-362] | 0.924 nM | 25.2 nM |
| COc1nc(C)c(-c2cc(Nc3ncc(C(F)(F)F)cc3Cl)ncc2OCCO)c(C)n1 [Compound I-210] | 0.804 nM | 3.67 nM |
